Results from patent publication US5851994A, “Compositions that inhibit wound contraction and methods of using same” (La Jolla Cancer Research Foundation, priority 1995, dated 1998).

Columns and labels:
CTT-18 cells = assay: Peptide collagen gel contraction assay; format: cell-based, human; conditions: FIG. 4, gel area over time
Description: CTT-18 cells, which are a normal human colon fibroblast cell line available from ATCC (#1459-CRL), were used in the gel contraction assays. Subconfluent CTT-18 cells were harvested by trypsinization, neutralized with soybean trypsin inhibitor, then washed several times with serum-free Dulbecco's modified Eagle's medium (DMEM). The cells were resuspended at 5×10^6 cells/ml in DMEM.
The collagen solution was prepared by combining the following reagents in the stated order: 1× DMEM, 1× insulin/transferrin/selenium (ITS; Collaborative Research; Bedford Mass.), 25 mM HEPES, 2.5 mg/ml rat tail collagen I (Collaborative Research). The solution was adjusted to pH 7.4 using 2M NaOH and deionized water was added to the appropriate final volume. Finally, 5×10^4 cells/ml (DMEM) were added to the solution and 0.6 ml of the combined solution was added to each well of a 24 well plate. The solution was allowed to gel for 1 hr at 37° C.
Peptides were diluted to 4.5 mM in 1× DMEM/1× ITS/1× penicillin/1× streptomycin and the solution was adjusted to pH 7.4. Each gel was overlayed with 0.6 ml peptide solution and the gel periphery was rimmed to release the gel from the edge of the well. The gels were incubated at 37° C. and each gel area was monitored daily by planimetry using a computerized planimetry program (Digitize, Macintosh).
In addition to determining the area of a gel, a replicate gel for each experimental condition was examined each day for cell viability. To determine cell viability, the overlay media was removed and replaced with 4 mg/ml collagenase type 2 (Worthington Biochemical; Freehold N.J.) in collagen digestion buffer (0.13M NaCl, 0.01M Ca acetate, 0.02M HEPES, pH 7.2). The sample was incubated at 37° C. until digestion was complete (about 1 hr). The solution was centrifuged at 3000 rpm in a microcentrifuge for 5 min and the pellet resuspended in trypsin/EDTA and incubated for 20 min at 37° C. The solution again was centrifuged, the pellet resuspended in 40 μl 0.4% trypan blue and the viable cells were counted in a hemocytometer. In general, the variations in cell viability were slight, and it was unnecessary to correct the gel contraction results due to significant differences in cell viability.

collagen gels = conditions: Grinnell et al. 1989; U.S. Pat. No. 4,957,902; cited from earlier work
[1] = test system: NIH 3T3 mouse fibroblasts; assay: Decorin collagen gel contraction assay, NIH 3T3 cells; format: cell-based; conditions: for collagen gel contraction versus control level: 10 ng/ml PDGF, 20 ng/ml acidic FGF, without decorin
Description: NIH 3T3 mouse fibroblasts (ATCC #CRL 1658) and WI38 human fibroblasts (ATCC #CL75) were used in these assays and passaged in culture as prescribed.
Cells were collected by washing the cells with sterile PBS, then incubating the cells for 5 min at 37° C. with trypsin-EDTA (200 mg versene and 500 mg trypsin/liter Hank's balanced salt solution; Gibco/BRL; Gaithersburg MD). Following incubation, cells were removed by aspiration with a pipet and DMEM supplemented with 10% FBS (BioWhittaker; Walkersville Md.) was added to neutralize the trypsin. Cells were centrifuged for 8 min at 1200 rpm, decanted, washed 3× with serum-free DMEM and resuspended in serum-free DMEM to the following concentrations: NIH 3T3 cells, 3.0×10^6 cells/ml; WI38 cells, 1.0×10^6 cell/ml.
The following reagents were added on ice to generate a total of 24 gels: 3.6 ml 5× DMEM (Gibco/BRL), 1.0 ml 1M HEPES (Sigma), 0.74 ml 0.5M NaOH, 2.0 ml cell suspension in serum-free DMEM, 7.6 ml rat tail collagen I (3.81 mg/ml; Collaborative Research). The collagen mixture was quickly added to a mixture of 4.8 ml decorin and water to yield the appropriate decorin concentration and 0.7 ml was added to each well of a 24 well microtiter dish that previously had been coated with 2% bovine serum albumin in PBS. The gels were allowed to solidify for 1 hr at 37° C. in a humidified incubator, then were released from the edges of the well by tapping or by rimming with a pipet tip.
Gels were transferred aseptically using forceps from the microtiter plate into a Nunc six well plate. Three gels were transferred into each 33 mm well. Prior to transfer, each well received 1 ng/ml TGFβ (from porcine platelets; R&D Systems; Minneapolis Minn.). […] The plates were rocked in a humidified incubator at 37° C. and 7% CO2 for the length of the experiment. The area of the gels was measured daily using photographs from an image analyzer and planimetry.

collagen [2] = assay: Binding to collagen
collagen [3] = assay: Effect on collagen fibril structure

Molecule: N=C(N)NCCC[C@H](N)C(=O)O [mono-arginine, arginine]
- inhibition of gel contraction (CTT-18 cells): did not inhibit gel contraction
- inhibition of gel contraction (CTT-18 cells; listed as Arg 1): do not inhibit collagen gel contraction

Molecule: GRGESP
- effect on contraction of collagen gels (collagen gels): inhibited contraction of collagen gels

Molecule: PDGF
- collagen gel contraction versus control level ([1]; 1 ng/ml TGFβ, FIG. 6): increased the amount of collagen gel contraction above the control level

Molecule: TGFβ: growth factor from porcine platelets (R&D Systems) that stimulates contraction
- collagen gel contraction versus control level ([1]; 1 ng/ml TGFβ, FIG. 6): increased the amount of collagen gel contraction above the control level
- contraction of a collagen/NIH 3T3 gel ([1]; 1.0 ng/ml TGFβ, 24 hr, 0 μg/ml decorin): approximately 60%

Molecule: acidic FGF: acidic fibroblast-derived growth factor (R & D Systems)
- collagen gel contraction versus control level ([1]; 1 ng/ml TGFβ, FIG. 6): increased the amount of collagen gel contraction above the control level

Molecule: di-arginine
- inhibition of gel contraction (CTT-18 cells): did not inhibit gel contraction
- inhibition of gel contraction (CTT-18 cells; listed as Arg 2): do not inhibit collagen gel contraction

Molecule: tri-arginine
- inhibition of gel contraction (CTT-18 cells): did not inhibit gel contraction
- inhibition of gel contraction (CTT-18 cells; listed as Arg 3): do not inhibit collagen gel contraction

B1: decorin: proteoglycan produced by fibroblasts, core protein about 40 kDa; produced in decorin-expressing CHO cells (protein, UniProt P07585 31-359, looked up)
Decorin: DEASGIGPEVPDDRDFEPSLGPVCPFRCQCHLRVVQCSDLGLDKVPKDLPPDTTLLDLQNNKITEIKDGDFKNLKNLHALILVNNKISKVSPGAFTPLVKLERLYLSKNQLKELPEKMPKTLQELRAHENEITKVRKVTFNGLNQMIVIELGTNPLKSSGIENGAFQGMKKLSYIRIADTNITSIPQGLPPSLTELHLDGNKISRVDAASLKGLNNLAKLGLSFNSISAVDNGSLANTPHLRELHLDNNKLTRVPGGLAEHKYIQVVYLHNNNISVVGSSDFCPPGHNTKKASYSGVSLFSNPVQYWEIQPSTFRCVYVRSAIQLGNYK
- gel contraction in the presence of growth factors ([1]; 200 μg decorin per ml gel, 1 ng/ml TGFβ, 10 ng/ml PDGF or 20 ng/ml acidic FGF, FIG. 6): reduced or inhibited the level of gel contraction
- gel contraction at 200 μg per ml decorin ([1]; collagen/NIH 3T3 gel, 1 ng/ml TGFβ, 24 hr): no gel contraction was observed
- gel contraction with increasing concentrations of decorin in the gel ([1]; collagen/NIH 3T3 gel, 1 ng/ml TGFβ, 24 hr, FIG. 5): reduced or inhibited gel contraction

B2: denatured decorin: denatured decorin, compared with native/intact decorin (protein, UniProt P07585 31-359, looked up)
Decorin: B1 Decorin
modifications: denatured
- inhibition of gel contraction compared with intact decorin ([1]; cells not given): retains some ability to inhibit gel contraction
- collagen binding (collagen [2]): binds collagen to the same extent as nondenatured decorin
- effect on fibril structure (collagen [3]): does not affect fibril structure

B3: Decorin that had been reduced and alkylated: decorin incubated with dithiothreitol, then iodoacetamide (protein, UniProt P07585 31-359, looked up)
Decorin: B1 Decorin
modifications: reduced and alkylated
notes: decorin incubated with dithiothreitol, then iodoacetamide
- gel contraction ([1]; reduced and alkylated form, data not shown): inhibited gel contraction

B4: biglycan: proteoglycan with core protein sequence closely related to decorin (protein, UniProt P21810 38-368, looked up)
Biglycan: DEEASGADTSGVLDPDSVTPTYSAMCPFGCHCHLRVVQCSDLGLKSVPKEISPDTTLLDLQNNDISELRKDDFKGLQHLYALVLVNNKISKIHEKAFSPLRKLQKLYISKNHLVEIPPNLPSSLVELRIHDNRIRKVPKGVFSGLRNMNCIEMGGNPLENSGFEPGAFDGLKLNYLRISEAKLTGIPKDLPETLNELHLDHNKIQAIELEDLLRYSKLYRLGLGHNQIRMIENGSLSFLPTLRELHLDNNKLARVPSGLPDLKLLQVVYLHSNNITKVGVNDFCPMGFGVKRAYYNGISLFNNPVPYWEVQPATFRCVTDRLAIQFGNYKK
- collagen binding (collagen [2]): can bind to collagen in the gel contraction assays
